Measurements as given in US20100247456A1, “METHODS AND COMPOSITIONS FOR PREVENTING CARIES” (priority 2009, published 2010).
Values joined by “and” are separate entries in the source; they are usually repeats but may differ in a detail not shown here. Identical values can stand only once.

Tested on: caries
Test: 6-month comparison of silver-diamine-fluoride (SDF) and fluoride varnish in school aged children
Format: in vivo
Method: A fluoride composition was used in the study.
The compositions were applied once at the time of the initial exam using a tiny brush to any decayed area for 3 min, then the child rinsed.

[1] = after 6 months, applied once to decayed area for 3 min

silver diamine fluoride [SDF]
SDF Number Needed To Treat, Active Caries ([1/(Varnish % − SDF %)], 6 months): 1.2 | SDF Prevented Fraction, Active Caries ([(Varnish % − SDF %)/Varnish %], 6 months): 82.7 | reduction in active caries compared to fluoride varnish (after 6 months): about 80% | Active Caries, # of School Children, Frequency [1]: 20 | Active Caries, # of School Children, Percent [1]: 16% and 16.8% | Active and Arrested Caries in same child, # of School Children, Frequency [1]: 69 | Active and Arrested Caries in same child, # of School Children, Percent [1]: 58.0% | Arrested Caries, # of School Children, Frequency [1]: 27 | Arrested Caries, # of School Children, Percent [1]: 22.7% | Dental Fillings, # of School Children, Frequency [1]: 3 | Dental Fillings, # of School Children, Percent [1]: 2.5%
